Data set [1] addresses T1, human HHAT (Homo sapiens, UniProt Q5VTY9).
T1 construct: Full-length human HHAT (UniProt Q5VTY9); made in house
Put plainly: Acyl-cLIP assay, dose-response inhibition of purified HHAT. The format is biochemical. As to conditions: for HHAT inhibition (in words) / pIC50: purified HHAT; for HHAT inhibition (in words): Acyl-cLIP; for pIC50: real-time Acyl-cLIP, mean and 95 % CI, n=3. The procedure:
We recently reported the acylation‐coupled lipophilic induction of polarization (Acyl‐cLIP) assay, a facile and universally applicable method to monitor enzymes processing lipid post‐translational modifications which uses the hydrophobicity increase on lipidation to drive a polarized fluorescence readout. ^[15] Dose‐response analysis of inhibition of purified HHAT was conducted using real‐time Acyl‐cLIP analysis (Table 1).
AMBIC (ammonium bicarbonate); CDI (1,1’-carbonyldiimidazole); DCM (dichloromethane); DDM (n-dodecyl-β-D-maltopyranoside); DIPEA (N,N-diisopropylethylamine); DMF (dimethylformamide); DTT (dithiothreitol); EDTA (ethylenediaminetetraacetic acid); FAM (5/6-carboxyfluorescein); HEPES (4-(2-hydroxyethyl)-1-piperazineethanesulfonic acid); HOBt (hydroxybenzotriazole); TBME (tert-butyl methyl ether); TBTA (tris[(1-benzyl-1H-1,2,3-triazol-4-yl)methyl]amine); TCEP (tris(2-carboxyethyl)phosphine hydrochloride); TEA (triethylamine); TFA (trifluoroacetic acid); THF (tetrahydrofuran); TRIS (tris(hydroxymethyl)aminomethane).
All reagents were purchased from commercial sources (Sigma-Aldrich, Fisher Scientific, Acros Organics, Novabiochem) and used without further purification.
Pal-CoA (Sigma Aldrich) was stored in NaOAc (0.1 M, pH 6.0) at -80 °C. RUSKI-201 (1) was synthesised as previously described.[1b] The peptide comprising of residues 24-43 of SHH (residues 1-10 of the mature protein) labelled with 5/6-carboxyfluorescein (SHH-FAM) was prepared as previously described.
Mixtures described as % represent v/v unless otherwise stated.
Biological and Biochemical Methods
Full-length human HHAT (UniProt Q5VTY9) C -terminally fused with a 1D4 epitope tag was expressed and purified via antibody purification with Rho -1D4 antibody (University of British Columbia) coupled to CNBr-activated sepharose beads (GE Healthcare) as previously described.[9] Purified HHAT 0.1-0.2 mg/mL in storage buffer (10 mM HEPES, 150 mM NaCl, 5% glycerol, 0.025% (w/v) DDM, 0.0006% (w/v) cholesterol-hemisuccinate, pH 7.5) was flash-frozen in liquid nitrogen and stored at -80 °C.
The Acylation-coupled Lipophilic Induction of Polarisation (Acyl -cLIP) was performed as previously described,[9] using Rho-1D4 antibody purified HHAT. Briefly, HHAT was diluted to 45 µg/mL in solubilisation buffer (20 mM HEPES, 350 mM NaCl, 1% (w/v) DDM, 5% glycerol, pH 7.3) added to SHH-FAM (2 µM) in reaction buffer (100 mM MES, 20 mM NaCl, 1 mM DTT, 1 mM TCEP, 0.1% (w/v) BSA, pH 6.5) in a 1:10 (v/v) ratio, respectively. The HHAT/SHH-FAM solution (12 µL/well) was dispensed into a black 384-well plate (Corning, 3575). The reaction was initiated by addition of Pal-CoA (7.5 µM) in reaction buffer (8 µL/well), and fluorescence anisotropy measured every 1 min for 1 h on an EnVision Xcite 2104 (PerkinElmer).
Measurement used a FITC FP D505fp mirror module, FITC FP 480 nm excitation filter (30 nm bandwidth), FITC FP P-pol 535 nm first emission filter (40 nm bandwidth), and FITC FP S-pol […]
(§1) 535 nm second emission filter (40 nm bandwidth), measurement height = 9.52 mm, 8 flashes/well, PMT gain = 319, and G-factor = 1.09. Fluorescence anisotropy was calculated […]
(§2) Where S is signal in the S-channel, P is signal in the P-channel, and G is the G-factor.
(§3) Assay data were evaluated using Microsoft Excel 2013 and GraphPad Prism 5.0. Initial rate constants were determined by linear regression, normalized to DMSO negative controls and background corrected to positive controls with solubilization buffer instead of HHAT. The half-maximal inhibitory concentration (IC 50) was calculated using a 4-parameter sigmoidal dose-response curve fit. Determination of the mechanism of inhibition of IMP -1575 relative to Pal-CoA was performed by fitting equation 2 for a mixed model of inhibition[10] using nonlinear […]
Where v is the observed rate of reaction, Vmax is the maximum rate, [I] is the inhibitor concentration, [S] is the substrate concentration, Km is the substrate concentration at ½ Vmax, […]

Data set [2] concerns the target T1, human HHAT. Kind of data set: Acyl-cLIP inhibition kinetics at varying Pal-CoA concentrations (mixed model of inhibition). The format is biochemical. The procedure:
IMP‐1575 (50–0.023 μM) was therefore analyzed for effects on HHAT kinetics at varying Pal‐CoA concentrations (50–0.19 μM, Figure 3 B,C).
as §1, §2, §3
Where v is the observed rate of reaction, Vmax is the maximum rate, [I] is the inhibitor concentration, [S] is the substrate concentration, Km is the substrate concentration at ½ Vmax, Ki is the affinity of the inhibitor for the free enzyme, and α is the ratio of the affinity of the inhibitor for the enzyme-substrate complex (Ki’) to Ki (typically noted as Ki’/Ki).
Density-Functional Theory Modelling
Density-functional theory (DFT) predictions were performed using Gaussian 16 [11] and Orca (version 4.0.1.2).[12] The compound 6 structure was initially created using Avogadro software (1.2.0) and geometry -optimised using an MMFF94s force field. Avogadro was also employed to explore conformers of the structure using a “systematic rotor search”. DFT geometry optimisations were initially carried out on the MMFF94s optimised structures using either the 6-31G basis set (for the B3LYP and M062X functionals) or the def2/SVP basis set (for the CAM-B3LYP functional). Structures were then optimised with a higher -level basis set (6-311++G(d,p), for the B3LYP and M062X functional, and def2/TZVP for the CAM-B3LYP functional). […]

The target of data set [3] is T1, human HHAT. Put plainly: Photocrosslinking to purified HHAT, CalFluor-647 CuAAC and in-gel fluorescence. Type of data set: binding. Particulars: for crosslinking of probe to HHAT (in-gel fluorescence): probe 10 μM, purified HHAT, UV 365 nm 1 min. From the text:
These new insights led to design of photocrosslinking chemical probes 10 and 11 to investigate the small‐molecule binding site in HHAT (Figure 2 A). In probe 10 the secondary amine moiety was exchanged for a diazirine group, and the terminal alkyl chain replaced with an alkyne; probe 11 contains an additional carbon between the carbonyl and diazirine. The diazirine allows photoactivated chemical crosslinking to nearby residues in HHAT, with the alkyne allowing biorthogonal functionalization via copper(I)‐catalyzed azide‐alkyne cycloaddition (CuAAC, “click chemistry”) for subsequent analysis. […] The sidechains were synthesized and coupled to 2 (Scheme S4,5). […] Protein crosslinking was next investigated through CuAAC functionalization with a fluorophore and in‐gel fluorescence readout. As an integral membrane protein, HHAT presents substantial challenges in sample handling and cannot be precipitated to remove excess fluorophore which otherwise binds non‐specifically (data not shown). Fluorogenic azide CalFluor‐647 (Figure S8) ^[18] was therefore used to reduce background fluorescence from dye that had not reacted with alkyne probe. 10 or 11 (10 μM) were incubated with purified HHAT with or without UV irradiation (1 min). […]
Molecule for alignment. Compounds 1-9 (R)-enantiomers and IC50 values from the Acyl-cLIP assay were used as a Training Set . For the purpose of analysis of weakly active inhibitors, […]
Conformation Hunt was set to Normal, Alignment set to Normal, and Build Model set to Field
QSAR. Probes 10 and 11 were used as a Prediction Set .
Photoactivation Analysis by LC/MS
A solution of 10 or 11 (100 μM) in water was cooled on ice and irradiated using a custom-made UV light source (365 nm, 25 mW/cm2) for the indicated times. […]
All steps were performed in the dark in a cold room (4 °C), until specified otherwise. […] The gel was run until the loading dye had eluted from the gel (typically 55 min at 200 V) and the in-gel fluorescence […]
recorded (Excitation: 635 nm Emission: 669 nm) on a Typhoon FLA 9500 (GE Healthcare). […]

Data set [4] is described as follows: Photoactivation analysis by LC/MS under UV irradiation (365 nm). Type of data set: physicochemical. As to conditions: 100 μM in water on ice.
For data set [5], the target named is HHAT. Also on record: method as in PMID 23416332. Particulars: reported as noncompetitive with Pal-CoA; cited from earlier work.

pIC50, pKi: −log10 of the molar value. Entries after “also recorded” stand apart in the source; their conditions may differ.

Results on 13 molecules are retold here after article PMC8252026, “Photochemical Probe Identification of a Small‐Molecule Inhibitor Binding Site in Hedgehog Acyltransferase (HHAT)” (Angewandte Chemie (International Ed. in English), 2021).

T1 sequence (Q5VTY9 whole entry): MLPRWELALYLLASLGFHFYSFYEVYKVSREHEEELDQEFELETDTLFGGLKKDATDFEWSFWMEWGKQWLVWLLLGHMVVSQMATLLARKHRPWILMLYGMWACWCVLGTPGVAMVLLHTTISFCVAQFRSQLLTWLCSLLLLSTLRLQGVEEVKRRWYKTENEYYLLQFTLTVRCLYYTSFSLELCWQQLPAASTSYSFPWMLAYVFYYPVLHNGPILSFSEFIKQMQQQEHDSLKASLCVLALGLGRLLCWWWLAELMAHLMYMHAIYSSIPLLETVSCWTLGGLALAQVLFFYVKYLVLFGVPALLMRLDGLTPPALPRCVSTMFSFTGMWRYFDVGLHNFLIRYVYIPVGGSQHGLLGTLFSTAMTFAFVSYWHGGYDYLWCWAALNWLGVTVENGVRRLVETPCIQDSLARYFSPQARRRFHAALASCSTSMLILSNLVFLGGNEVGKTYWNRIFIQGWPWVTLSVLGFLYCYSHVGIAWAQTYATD

The term pIC50 denotes −log10 of the IC50, conventionally taken in molar units. Turning to `Cc1cccc(C2c3ccsc3CCN2C(=O)CNCC(C)C)n1` (single isomer, unassigned; (-)) [(-)-6], in data set [1], the “HHAT inhibition (in words)” value was “no HHAT inhibition” and the pIC50 was below 4.30.
By pKi is commonly meant the Ki on a negative log10 scale, so that one unit is a factor of ten. `Cc1cccc([C@H]2c3ccsc3CCN2C(=O)CNCC(C)C)n1` [(+)-6]: the “potency compared to (+/-)-6” value in data set [1] (from Acyl-cLIP IC50) was “two‐fold increased potency”. In data set [1], the pIC50 is 6.12. Besides, in data set [2] (competitive with respect to Pal-CoA, IMP-1575 50-0.023 μM, Pal-CoA 50-0.19 μM, mixed model fit), the pKi was 7.42. Further, in data set [2] (mixed model analysis), the “mode of inhibition with respect to Pal-CoA” value was “competitive”. Also, in data set [2] (ratio Ki'/Ki, with respect to Pal-CoA), the “α (mixed model equation for inhibition)” value came to 470. In addition, the “competition of probe 11 crosslinking to HHAT” value in data set [3] (40-fold excess IMP-1575 (400 μM) vs probe 11 (10 μM)) is recorded as “reduced crosslinking to near background levels”.
For the molecule `Cc1cccc(C2NCCc3sccc32)n1` (stereo not shown) [Compound 2], in data set [1], the “HHAT inhibition (in words)” value is on record as “no inhibition” and the pIC50 is below 4.30.
In the case of `CC(=O)N1CCc2sccc2C1c1cccc(C)n1` (stereo not shown) [Compound 3], the pIC50 in data set [1] is 4.89.
Turning to `CC[C@H](C)CNCC(=O)N1CCc2sccc2C1c1cccc(C)n1` (stereo partly shown) [Compound 4], in data set [1] (from Acyl-cLIP IC50), the “fold reduced potency compared to 1” value was “≈ 2 fold”. This molecule also gave a pIC50 in data set [1] of 5.43.
For the molecule `Cc1cccc(C2c3ccsc3CCN2C(=O)CNCCC(C)C)n1` (stereo not shown) [Compound 5], in data set [1], the pIC50 is 5.24.
Same read-out and setting: as for `Cc1cccc(C2c3ccsc3CCN2C(=O)CNCC(C)C)n1` (stereo not shown) [Compound 6], the figure is 5.89.
As to `Cc1cccc(C2c3ccsc3CCN2C(=O)CN(C)CC(C)C)n1` (stereo not shown) [Compound 7], in data set [1], the “HHAT inhibition (in words)” value is listed as “substantially reduced activity” and the pIC50 was around 4.60.
For `Cc1cccc(C2c3ccsc3CCN2C(=O)CN2CCCC(C)C2)n1` (stereo not shown) [Compound 8] the same measures were “substantially reduced activity” and around 4.30.
For `Cc1cccc(C2c3ccsc3CCN2C(=O)NCCC(C)C)n1` (stereo not shown) [Compound 9] the same measures were “substantially reduced activity” and around 4.30.
Take `C#CCCC1(CC(=O)N2CCc3sccc3C2c2cccc(C)n2)N=N1` (stereo not shown) [Compound 10]: the negative-log IC50 (pIC50) in data set [1] is 4.80. This molecule also registered an activation half-life in data set [4] of 3.3 min. The “crosslinking of probe to HHAT (in-gel fluorescence)” value in data set [3] is on record as “minimal crosslinking; also recorded: minimal labelling”.
For `C#CCCC1(CCC(=O)N2CCc3sccc3C2c2cccc(C)n2)N=N1` (stereo not shown) [Compound 11], in that order: 5.62, 0.533 min and “crosslinking of probe 11 to HHAT promoted by UV irradiation; also recorded: enhanced labelling with UV irradiation”.
For the molecule `CCC(C)CNCC(=O)N1CCc2sccc2C1COc1cccc(C)c1` (stereo not shown) [RUSKI-43], in data set [5], the pKi is 5.16.
